Reference: patent US8420810B2, “Bicyclic heterocyclic compound” (Ono Pharmaceutical, Co., Ltd., priority 2007, dated 2013)

What was measured:
human CRF receptor I [1] = biological target: T1, human CRF receptor I (Homo sapiens, UniProt P34998); assay: Binding assay (125I-CRF, membrane fraction); details: 125I-CRF 0.25 nM, membrane fraction of CHO-K1 cells expressing human CRF receptor I, room temperature 2 hours
T1 construct: expressed in transfected cells; host or cells: CHO-K1
T1 sequence (P34998 24-415): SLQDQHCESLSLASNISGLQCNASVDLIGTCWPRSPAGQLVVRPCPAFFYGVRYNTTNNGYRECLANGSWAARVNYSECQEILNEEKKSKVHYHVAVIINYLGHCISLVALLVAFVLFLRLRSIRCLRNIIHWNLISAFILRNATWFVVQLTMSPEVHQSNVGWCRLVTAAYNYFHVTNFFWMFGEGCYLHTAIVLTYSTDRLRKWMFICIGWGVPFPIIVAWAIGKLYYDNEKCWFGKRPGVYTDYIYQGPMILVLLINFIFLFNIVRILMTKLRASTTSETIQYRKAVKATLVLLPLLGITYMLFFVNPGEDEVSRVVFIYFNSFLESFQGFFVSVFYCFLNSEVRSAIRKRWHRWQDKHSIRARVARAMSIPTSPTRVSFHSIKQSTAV
Description: The forced-expression cell strain of the human CRF receptor I (parent strain is CHO-K1 cell) was cultured until the cell was confluent and collected with a scraper. The collected cells were washed twice with PBS, and were suspended with an ice-colded binding assay buffer (Tris-HCl (50 mM, pH 7.0), EDTA (2 mM, pH 8.0), and MgCl2 (10 mM)). After fractured with a dounce-type homogenizer, the suspended cells were centrifuged at 10,000 g, and a membrane fraction was collected. The collected membrane fraction was resuspended with a little amount of the binding assay buffer, thereafter diluted with the binding assay buffer so as to have a concentration of 1 mg/mL. The obtained membrane fraction was used for a binding assay.
^125I-CRF was diluted with the binding assay buffer so as to have a concentration of 0.5 nM, whereby 50 μL of the diluted ^125I-CRF was added to a siliconized 1.5 mL tube. Next, evaluation compounds diluted at appropriate times, DMSO (for general binding), or 100 μM of CRF (for non-specific binding), was added to a […]. Finally, 50 μL of the membrane fraction was added thereto and the reaction was started (final concentration of ^125I-CRF was 0.25 nM). The tube was incubated at room temperature for 2 hours. After the reaction, the tube was centrifuged at 20,000 g in order to collect the membrane fraction. The supernatant was discarded, and the pellet was washed with an ice-colded PBS/0.01% TritonX-100. A membrane binding count was measured using a y counter. The specific binding count was obtained by subtracting the non-specific count from the measured count.

SD rats = assay: Elevated plus maze test with swim-stressed rat; type: in vivo; details: orally 1 hour before the test
Description: 2 open arms with the same lengths (50×10 cm) and 2 close arms (a 30 cm wall was provided) with the same lengths (50×10 cm) were arranged in orthogonal manner at a height of 50 cm from the floor to provide an elevated crossroad maze system. In 70 cm above the both open arms, white light was provided, whereby illuminance was maintained at constant.
SD rats of 7 weeks of age (CHARLES RIVER LABORATORIES JAPAN) were forcedly made to swim for 120 seconds in a pool (40×30×38 cm) at 22° C. of water temperature and 25 cm of water depth. After 9 minutes of soaking stress loading, the rat was put on the center of the system. The activity for 5 minutes of the rat was analyzed with an automatic activity-tracking analysis system (EthoVision Version 3.0, Noldus Information Technology) to calculate the dwell time (second) on the open arm.
Note that no soaking stress was loaded on the control group. In addition, 20% Wellsolve (registered trademark) (5 mL/kg) was orally administered to the vehicle group and evaluation compounds in various concentrations were orally administrated to the evaluation compound administration group 1 hour before the test.

human CRF receptor I [2] = biological target: T1, human CRF receptor I; assay: Receptor antagonistic activity (cyclic AMP assay); type: cell-based; details: accumulated cyclic AMP, human/rat CRF stimulation, cells expressing human CRF receptor I, 37° C. 15 minutes
Description: The forced expression cell strain of the human CRF receptor I was cultured at 37° C. under 5% carbon dioxide and 95% air by using a Ham's F-12 medium (F-12 nutrient mixture) containing 10% bovine fetal serum and 1% antibiotic substance-antifungal agent. On the previous day before the cyclic AMP was measured, the cells were inoculated into a 96-well plate in an amount of 1×10^4 cell/well. On the measurement day, the cells were washed twice with a Ham's F-12 medium, whereby a solution of Ham's F-12 medium/1 mM 3-isobutyl-1-methylxanthine (assay medium) (178 μL) was added to each well. After the incubation at 37° C. for 15 minutes, the solutions (2 μL) of evaluation compound in various concentrations were added thereto, or DMSO (2 μL) was added to a CRF group and a blank group. An assay medium (20 μL) containing 10 nM human/rat CRF was added to wells of an evaluation compound group and the CRF group. An assay medium (20 μL) containing 0.00001% acetic acid was added to the blank group. Each group was further incubated at 37° C. for 15 minutes. The supernatant was removed and ice-colded to stop the reaction. Note that the reactions of 2 wells were the same in all reactions. The measurement for accumulated cyclic AMP amount in cells was carried out by using a cyclic AMP Biotrak enzyme immunoassay system (manufactured by GE Healthcare). The accumulated cyclic AMP amounts were calculated by subtracting mean values of corresponding 2 wells in the blank group from that of 2 wells. The IC50 values were calculated with non-linear regression analysis by defining logarithm concentration of the evaluation compound as independent variable and an accumulated cyclic AMP amount as dependent variable.

rats = assay: Rat learned helplessness test; type: in vivo; details: oral, once a day for 6 days and 1 hour before the shock training
Description: The learned helplessness test was carried out using a two-way shuttle box which is partitioned into two by a gate which can be opened and closed so that travel to right and left becomes possible. On the 1st day of the learned helplessness test, rats were put into the device under un-escapable condition by closing the gate, and a total of 90 times of an electric shock (0.5 mA) was applied to them through a floor grid for 10 seconds at 2 seconds' intervals (shock training). Rats of the control group were left as they are for the same period of time (for 18 minutes) without applying the electric shock. After 24 hours of the shock training, rats were put into the device under escapable condition by opening the gate to carry out an escape test. After 5 minutes of acclimatization, a light stimulus and a sound stimulus (conditioning stimuli) were applied simultaneously for 5 seconds, and subsequent electric shock (un-conditioning stimulus) was applied for 10 seconds. This was regarded as one trial. A case of continuously receiving the electric shock without escape was regarded as escape failure. A total of 40 trials were carried out by setting the interval between respective trials to 5 seconds, and frequency of the escape failure was recorded.
In this connection, the vehicle (20% solvent) and evaluation compound were repeatedly administered once a day for 6 days and further orally administered 1 hour before the shock training.

Light stability test = type: physicochemical; details: 2500 Lux (D65 lamp), 25° C., HPLC
Description: After weighing 5 mg of an evaluation compound, it was put into a test tube made of glass which was then sealed with a stop cock. Said test tube was stored at 25° C. for 11 days or 20 days under irradiation of 2500 Lux (a D65 lamp was used as the light source). The evaluation compound after 11 days or 20 days of irradiation was determined by an HPLC apparatus. Survival rate (%) of the evaluation compound was calculated by the following formula. Survival rate of evaluation compound (%)=amount of evaluation compound after 11 days or 20 days of irradiation (mg)/weighed value of evaluation compound (mg)×100 <HPLC Conditions> • Apparatus: A 1200 series (manufactured by Agilent Technologies, Inc.), • Column: YMC-Pack C4, A-802, 150×4.6 mm I.D., S-5 μm, 120 A (manufactured by YMC), • Mobile phase: A: water, B: acetonitrile, A/B: 35/65, • Column temperature: room temperature, • Flow rate: 1.0 mL/min.

CCc1cc(OC)ccc1-c1nn2c(C)cc(C(CC)CC)c2c(=O)n1C [8(25), 2-(2-ethyl-4-methoxyphenyl)-5-(1-ethylpropyl)-3,7-dimethylpyrrolo[2,1-f][1,2,4]triazin-4(3H)-one]
IC50 (human CRF receptor I [1]): 3.6 nM | mean dwell time on the open arm compared to that of the vehicle group (SD rats): favorably elongated | IC50 (human CRF receptor I [2]): 1.7 nM

CCC(CC)c1cc(C)n2nc(-c3c(C)nc(N(C)C)nc3C)n(C)c(=O)c12 [8(27), 2-[2-(dimethylamino)-4,6-dimethyl-5-pyrimidinyl]-5-(1-ethylpropyl)-3,7-dimethylpyrrolo[2,1-f][1,2,4]triazin-4(3H)-one]
IC50 (human CRF receptor I [1]): 14.7 nM | IC50 (human CRF receptor I [2]): 9.4 nM

CCC(CC)c1cc(C)n2nc(-c3ccc(OC)cc3C)n(CC(N)=O)c(=O)c12 [8(38), 2-[5-(1-ethylpropyl)-2-(4-methoxy-2-methylphenyl)-7-methyl-4-oxopyrrolo[2,1-f][1,2,4]triazin-3(4H)-yl]acetamide]
IC50 (human CRF receptor I [1]): 23.5 nM | IC50 (human CRF receptor I [2]): 34.8 nM

CCC(CC)c1cc(C)n2nc(-c3ccc(OC)cc3C)n(CCO)c(=O)c12 [8(44), 5-(1-ethylpropyl)-3-(2-hydroxyethyl)-2-(4-methoxy-2-methylphenyl)-7-methylpyrrolo[2,1-f][1,2,4]triazin-4(3H)-one]
IC50 (human CRF receptor I [1]): 7.8 nM | IC50 (human CRF receptor I [2]): 4.2 nM

CCC(CC)c1cc(C)n2nc(-c3sc(N(C)C)nc3Cl)n(C)c(=O)c12 [8(48), 2-[4-chloro-2-(dimethylamino)-1,3-thiazol-5-yl]-5-(1-ethylpropyl)-3,7-dimethylpyrrolo[2,1-f][1,2,4]triazin-4(3H)-one]
IC50 (human CRF receptor I [1]): 7.2 nM | IC50 (human CRF receptor I [2]): 1.2 nM

CCCC(C)c1cc(C)n2nc(-c3cnc(OC(F)F)cc3C)n(C)c(=O)c12 (stereo not drawn) [28(10), 2-[6-(difluoromethoxy)-4-methyl-3-pyridinyl]-3,7-dimethyl-5-(1-methylbutyl)pyrrolo[2,1-f][1,2,4]triazin-4(3H)-one]
IC50 (human CRF receptor I [1]): 20.7 nM | mean dwell time on the open arm compared to that of the vehicle group (SD rats): favorably elongated | IC50 (human CRF receptor I [2]): 17.1 nM

CCC(CC)c1cc(C)n2nc(-c3ccc(OC(F)(F)F)cc3Cl)n(C)c(=O)c12 [Example 8, 2-[2-chloro-4-(trifluoromethoxy)phenyl]-5-(1-ethylpropyl)-3,7-dimethylpyrrolo[2,1-f][1,2,4]triazin-4(3H)-one]
IC50 (human CRF receptor I [1]): 6.1 nM | increase of the frequency of escape failure for the vehicle group (rats; 10 mg/kg): significantly inhibited | mean dwell time on the open arm compared to that of the vehicle group (SD rats; 10 mg/kg): favorably elongated | residual ratio after 20 days (Light stability test): 99% | IC50 (human CRF receptor I [2]): 1.8 nM

CCC(CC)c1cc(C)n2nc(-c3cnc(OC(F)F)cc3C)n(C)c(=O)c12 [Example 13, 2-[6-(difluoromethoxy)-4-methyl-3pyridinyl]-5-(1-ethylpropyl)-3,7-dimethylpyrrolo[2,1-f][1,2,4]triazin-4(3H)-one]
IC50 (human CRF receptor I [1]): 5.3 nM | increase of the frequency of escape failure for the vehicle group (rats; 3 mg/kg): significantly inhibited | IC50 (human CRF receptor I [2]): 3.2 nM

CCCC(C)c1cc(C)n2nc(-c3ccc(SC)cc3Cl)n(C)c(=O)c12 (stereo not drawn) [Example 22, 2-[2-chloro-4-(methylthio)phenyl]-3,7-dimethyl-5-(1-methylbutyl)pyrrolo[2,1-f][1,2,4]triazin-4(3H)-one]
IC50 (human CRF receptor I [1]): 2.1 nM | increase of the frequency of escape failure for the vehicle group (rats; 3 mg/kg): significantly inhibited | IC50 (human CRF receptor I [2]): 1.9 nM

CCn1c(-c2ccc(SC)cc2C)nn2c(C)cc(C(C)C)c2c1=O [Example 23, 3-ethyl-5-isopropyl-7-methyl-2-[2-methyl-4-(methylthio)phenyl]pyrrolo[2,1-f][1,2,4]triazin-4(3H)-one]
IC50 (human CRF receptor I [1]): 11 nM | mean dwell time on the open arm compared to that of the vehicle group (SD rats; 10 mg/kg): favorably elongated | IC50 (human CRF receptor I [2]): 9.6 nM

CCC(CC)c1cc(C)n2nc(-c3ncc(OC)cc3Cl)n(C)c(=O)c12 [Example 24(21), 2-(3-chloro-5-methoxy-2-pyridinyl)-5-(1-ethylpropyl)-3,7-dimethylpyrrolo[2,1-f][1,2,4]triazin-4(3H)-one]
IC50 (human CRF receptor I [1]): 5.2 nM | increase of the frequency of escape failure for the vehicle group (rats; 10 mg/kg): significantly inhibited | IC50 (human CRF receptor I [2]): 5.8 nM

CCN(CC)c1cc(C)n2nc(-c3ccc(OC)cc3Cl)n(C)c(=O)c12 [Example 65, 2-(2-chloro-4-methoxyphenyl)-5-(diethylamino)-3,7-dimethylpyrrolo[2,1-f][1,2,4]triazin-4(3H)-one]
IC50 (human CRF receptor I [1]): 4.9 nM | IC50 (human CRF receptor I [2]): 3.5 nM
